This note sets out measurements from patent US7563903B2, “Acylaminothiazole derivatives, their preparation and their therapeutic use” (Sanofi-Aventis, priority 2003, dated 2009).

Structures are written as SMILES. Several values for one entry are separate records, joined by “and”; a condition that tells them apart may be missing. Equal entries are not always repeated.

For `CCC[C@H](NC(=O)[C@@H](O)C(C)(C)C)C(=O)Nc1ncc(-c2ccc(OC)cc2COc2ccccc2)s1` [compound 18, (2S)-2-{[(2S)-2-hydroxy-3,3-dimethylbutanoyl]amino}-N-{5-[4-methoxy-2-(phenoxymethyl)phenyl]-1,3-thiazol-2-yl}pentanamide], the melting point amounted to 117 °C. `CCC[C@H](NC(=O)[C@@H](O)C(C)C)C(=O)Nc1ncc(-c2ccc(OC)cc2COc2ccccc2)s1` [compound 49, (2S)-2-{[(2S)-2-hydroxy-3-methylbutanoyl]amino}-N-{5-[4-methoxy-2-(phenoxymethyl)phenyl]-1,3-thiazol-2-yl}pentanamide]: the melting point was 159.5 °C. Molecule `CCC[C@H](NC(=O)[C@@H](O)C(C)C)C(=O)Nc1ncc(-c2ccccc2COc2ccccc2)s1` [compound 37, (2S)-2-{[(2S)-2-hydroxy-3-methylbutanoyl]amino}-N-{5-[2-(phenoxymethyl)phenyl]-1,3-thiazol-2-yl}pentanamide] displayed a melting point of 141 °C. The same measure for `CCC[C@H](NC(=O)[C@@H](O)C(C)(C)C)C(=O)Nc1ncc(-c2ccccc2COc2cccc(C)c2)s1` [compound 68, (2S)-2-{[(2S)-2-hydroxy-3,3-dimethylbutanoyl]amino}-N-(5-{2-[(3-methylphenoxy)methyl]phenyl}-1,3-thiazol-2-yl)pentanamide]: 80.6 °C; for `CCC[C@H](NC(=O)[C@H](O)C(CC)CC)C(=O)Nc1ncc(-c2ccccc2COc2ccccc2)s1` (racemic) [Compound No. 42, (2R)-3-ethyl-2-hydroxy-N-{(1S)-1-[({5-[2-(phenoxymethyl)phenyl]-1,3-thiazol-2-yl}amino)carbonyl]butyl}pentanamide]: 67.4 °C and 67.5 °C; for `C[C@H](NC(=O)[C@@H](O)C(C)(C)C)C(=O)Nc1ncc(-c2ccccc2COC2CCCCC2)s1` [compound 66, (2S)—N-{(1S)-2-[(5-{2-[(cyclohexyloxy)methyl]phenyl}-1,3-thiazol-2-yl)amino]-1-methyl-2-oxoethyl}-2-hydroxy-3,3-dimethylbutanamide]: 104.8 °C. The same measure for `CCC[C@H](NC(=O)[C@@H](O)C(C)(C)C)C(=O)Nc1ncc(-c2ccccc2COc2ccccc2C#N)s1` [compound 69, (2S)—N-(5-{2-[(2-cyanophenoxy)methyl]phenyl}-1,3-thiazol-2-yl)-2-{[(2S)-2-hydroxy-3,3-dimethylbutanoyl]amino}pentanamide]: 99 °C. Molecule `C[C@H](NC(=O)[C@@H](O)C(C)(C)C)C(=O)Nc1ncc(-c2ccccc2COc2ccccc2)s1` [compound 58, (2S)-2-hydroxy-3,3-dimethyl-N-[(1S)-1-methyl-2-oxo-2-({5-[2-(phenoxymethyl)phenyl]-1,3-thiazol-2-yl}amino)ethyl]butanamide] showed a melting point of 118.6 °C. Molecule `CCC[C@H](NC(=O)[C@@H](O)C(C)(C)C)C(=O)Nc1ncc(-c2ccccc2COc2cccc(F)c2)s1` [compound 62, (2S)—N-(5-{2-[(3-fluorophenoxy)methyl]phenyl}-1,3-thiazol-2-yl)-2-{[(2S)-2-hydroxy-3,3-dimethylbutanoyl]amino}pentanamide] displayed a melting point of 160.2 °C.

As to `CCC[C@H](NC(=O)[C@@H](O)C(C)(C)C)C(=O)Nc1ncc(-c2cc(F)ccc2COc2ccccc2)s1` [compound 54, (2S)—N-{5-[5-fluoro-2-(phenoxymethyl)phenyl]-1,3-thiazol-2-yl}-2-{[(2S)-2-hydroxy-3,3-dimethylbutanoyl]amino}pentanamide], the melting point was 105.4 °C. The same measure for `CCC[C@H](NC(=O)[C@@H](O)C(C)(C)C)C(=O)Nc1ncc(-c2ccccc2COc2cc(C)ccc2C)s1` [compound 33, (2S)—N-(5-{2-[(2,5-dimethylphenoxy)methyl]phenyl}-1,3-thiazol-2-yl)-2{[(2S)-2-hydroxy-3,3-dimethylbutanoyl]amino}pentanamide]: 87 °C.
